From paper PMC12491701, “Discovery of an APP-selective BACE1 inhibitor for Alzheimer's disease” (Neurotherapeutics, 2025)
“And” between values parts separate entries of the source, which are not always exact repeats. Identical values can stand only once.

What was measured:
BACE1 cleavage of PSGL1 = molecular target: T1, BACE1 cleavage of PSGL1 (Homo sapiens, UniProt P56817); experiment: PSGL1 assay (SEAP-PSGL1); assay type: cell-based; conditions: SEAP-PSGL1, HEK293
T1 construct: with or without full-length wild-type BACE1; expressed in transfected cells; host or cells: HEK293
T1 sequence (P56817 46-501): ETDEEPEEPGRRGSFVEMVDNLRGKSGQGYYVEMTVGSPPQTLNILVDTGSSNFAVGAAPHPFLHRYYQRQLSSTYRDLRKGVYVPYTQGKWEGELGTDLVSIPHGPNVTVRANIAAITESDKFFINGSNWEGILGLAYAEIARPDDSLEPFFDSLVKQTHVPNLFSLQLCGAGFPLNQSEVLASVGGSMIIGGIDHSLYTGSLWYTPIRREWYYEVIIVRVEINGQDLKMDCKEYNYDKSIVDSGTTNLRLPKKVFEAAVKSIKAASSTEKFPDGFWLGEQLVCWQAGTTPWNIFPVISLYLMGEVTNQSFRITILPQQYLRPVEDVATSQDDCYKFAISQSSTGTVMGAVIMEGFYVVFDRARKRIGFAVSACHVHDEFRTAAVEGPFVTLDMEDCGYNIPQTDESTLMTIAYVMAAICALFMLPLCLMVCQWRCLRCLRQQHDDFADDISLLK
Method: A cDNA construct encoding a human placental secreted alkaline phosphatase (SEAP)-PSGL1 (pAPtag5-PSGL1-β1) fusion protein was transfected in human embryonic kidney (HEK293) cells in a 6-well format with or without full-length wild-type BACE1 using Lipofectamine 2000 (Invitrogen). After 6–8 ​h transfection, the medium was replaced with DMEM containing the test compound at 10, 5, 1, 0.1 and 0.01 ​μM and 10 ​% heat-inactivated fetal bovine serum (FBS), and incubated for 24 ​h. SEAP activity was measured in the conditioned medium.

[1] = Pilot PK of FAH65 vs. verubecestat in rats; assay type: in vivo, rat; conditions: oral gavage, 30 mg/kg
BACE1 = BACE1 (Homo sapiens, UniProt P56817); experiment: P5-P5′ BACE1 inhibition assay; assay type: biochemical; conditions: cell-free; read-out: BACE1 IC50 (P5-P5′ assay; BACE1-APP)
Chain of BACE1 (P56817 46-501): as above
Method: For the P5-P5′ BACE1 inhibition assay, 4 ​μL of assay buffer was added to each well, followed by 2 ​μL of BACE1 diluted in assay buffer to 7.5 ​ng/μL. Then, 2 ​μL of inhibitor, at concentrations along an 11 ​pt. two-fold dilution series starting at 10 ​μM, or 0.5 ​μM, were added to appropriate wells and incubated for 30 ​min at room temperature. For all dilutions of inhibitor, drug stock solutions of 10 ​mM in DMSO were diluted to 50 ​μM in water; subsequent dilutions were in 0.5 ​% DMSO. Afterwards, 2 ​μL of fluorogenic P5-P5′ BACE1 substrate, diluted to 50 ​μM in assay buffer, were added to each well and the signal generated was read every 30 ​min at 25 ​°C for 2 ​h.

Plasma stability assay = assay type: in vitro ADME; conditions: human plasma diluted 2-fold in PBS, pH 7.4, 37 °C, 180 min, read-out: Plasma stability t1/2
Method: The effects of candidate ASBIs on BACE2 activity was assessed using the R&D Systems BACE2 activity assay kit (Catalog #: 4097-AS and ES010) formatted from to the manufacturers. For the assay, 4 μL of assay buffer was added to each well, followed by 2 μL of BACE2 diluted in assay buffer to 10 ng/µL.
Then, 2 μL of inhibitor, at the appropriate concentrations were added to the wells and incubated for 30 minutes at room temperature. For all dilutions of inhibitor, drug stock solutions of 10 mM in DMSO were diluted to 50 μM in water; subsequent dilutions were in 0.5% DMSO. Afterwards, 2 μL of fluorogenic BACE2 substrate, diluted to 50 μM in assay buffer, were added to each well, after which the signal generated was read every 30 minutes at 25 °C for 2 hr (Fig S2).
FAH65 and its enantiomers at 10 mM in 100% DMSO was diluted in PBS pH 7.4 to 100, 10, 1, and 0.1 µM; plus, a vehicle-only control. The solutions were incubated at 37 °C for 90 min and centrifuged at 16K x g for 5 min. An aliquot of each supernatant was analyzed by LC-MS/MS. […]
Kinetic solubility (µM) was calculated using the trendline equation with maximum chromatographic peak area observed in the aqueous sample. […]
([…]® CAN, Chiral Technologies, Cat#H15L-109, 5 µm 50 x 4 mm). […] The retention time of the compound (tr) and injection peak were recorded.
The percent protein binding (P) was calculated using the following equations: […]

## Cc1cc(C2(c3cccc(-c4cncnc4)c3)N=C(N)N(C)C2=O)ccc1OC(F)F (centres unmarked) [FAH65]
BACE1 cleavage of PSGL1
  EC50: > 10000 nM
[1]; both sexes, Sprague-Dawley, rat, brain
  Cmax: 182 ng/g
[1]
  time of brain Cmax: 2 h
BACE1
  IC50: 7 nM and 10 to 30 nM and 10 nM and ~10 nM
Plasma stability assay
  half-life at 1 µM: > 3 h
